This assay concerns Staphylococcus aureus ATCC25923. Kind of assay: Disc diffusion test of inhibition zone. Format: cell-based. The conditions noted are these: HN019 1×10^8 CFU; gentamicin 200 μg/mL; 37° C., 18 hours. The procedure: Discs were prepared with sterile filter paper, the test substances HMO (10 mg/mL, 30 mg/mL) or probiotic (1×10^8 CFU) were introduced thereto, and the discs were dried overnight under sterile conditions. Staphylococcus aureus ATCC25923 (1.0×10^6 CFU/mL) was uniformly applied on the surface of an NGM agar plate, and then the discs were placed on the surface of the inoculated agar plate. Gentamicin (200 μg/mL) was used as a positive control. All plates were incubated at 37° C. for 18 hours.
(In general: In agar diffusion tests the substance spreads into inoculated agar from a disc or well.)

Consider Gentamicin, for which the “transparent inhibition zone around disc (direct antibacterial effect)” value was “formation of a transparent inhibition zone”.

The values are drawn from patent US20240000868A1, “Composition Containing Bifidobacterium Lactis and Human Milk Oligosaccharides and Application Thereof” (Inner Mongolia Yili Industrial Group Co., Ltd., priority 2020, published 2024).
